Assay results: the NIST ThermoML archive (doi:10.1016/j.fluid.2018.04.024)
± gives the expanded uncertainty stated by the source.

Conditions: Liquid, Vibrating tube method

CCCCCC(=O)OC [methyl hexanoate]
mass density [kg/m3]
Conditions	293.15 K	303.15 K	313.15 K	323.15 K	333.15 K	343.15 K	353.15 K	363.15 K
100 kPa	884.48 ± 0.91	874.56 ± 0.9	865.26 ± 0.89	855.18 ± 0.88	845.43 ± 0.87	835.2 ± 0.86	825.57 ± 0.85	815.64 ± 0.85
1000 kPa	884.65 ± 0.91	875.42 ± 0.9	865.64 ± 0.89	856.16 ± 0.88	846.26 ± 0.88	836.39 ± 0.87	826.5 ± 0.86	816.87 ± 0.85
3000 kPa	886.42 ± 0.91	877.13 ± 0.91	867.5 ± 0.9	858.01 ± 0.89	848.43 ± 0.88	838.54 ± 0.87	828.96 ± 0.86	819.47 ± 0.85
5000 kPa	887.67 ± 0.92	878.76 ± 0.91	869.26 ± 0.9	859.89 ± 0.89	850.38 ± 0.88	840.78 ± 0.88	831.13 ± 0.87	821.87 ± 0.86
10000 kPa	891.64 ± 0.93	882.75 ± 0.92	873.55 ± 0.91	864.44 ± 0.9	855.15 ± 0.9	845.7 ± 0.89	836.55 ± 0.88	827.32 ± 0.87
15000 kPa	895.33 ± 0.93	886.63 ± 0.93	877.59 ± 0.92	868.76 ± 0.91	859.63 ± 0.91	850.49 ± 0.9	841.75 ± 0.89	833.11 ± 0.89
20000 kPa	898.81 ± 0.94	890.21 ± 0.94	881.48 ± 0.93	872.98 ± 0.92	864 ± 0.92	855.28 ± 0.91	846.44 ± 0.91	837.93 ± 0.9
25000 kPa	902.28 ± 0.95	893.78 ± 0.94	885.29 ± 0.94	876.76 ± 0.93	868.18 ± 0.93	859.46 ± 0.92	851.08 ± 0.92	842.64 ± 0.91
30000 kPa	905.55 ± 0.96	897.24 ± 0.95	888.86 ± 0.95	880.55 ± 0.94	871.99 ± 0.94	863.7 ± 0.93	855.46 ± 0.93	847.27 ± 0.93
35000 kPa	908.69 ± 0.96	900.52 ± 0.96	892.33 ± 0.96	884.15 ± 0.95	875.8 ± 0.95	867.75 ± 0.95	859.68 ± 0.94	851.7 ± 0.94
40000 kPa	911.73 ± 0.97	903.67 ± 0.97	895.54 ± 0.96	887.68 ± 0.96	879.63 ± 0.96	871.46 ± 0.96	863.59 ± 0.95	856.02 ± 0.95
50000 kPa	917.83 ± 0.98	909.79 ± 0.98	901.99 ± 0.98	894.33 ± 0.98	886.48 ± 0.98	878.77 ± 0.98	871.08 ± 0.98	863.88 ± 0.98
60000 kPa	923.06 ± 1	915.57 ± 1	907.83 ± 0.99	900.65 ± 0.99	892.97 ± 0.99	885.3 ± 1	878.16 ± 1	871.24 ± 1

CCCCCCCCC(=O)OC [methyl nonanoate]
mass density [kg/m3]
Conditions	293.15 K	303.15 K	313.15 K	323.15 K	333.15 K	343.15 K	353.15 K	363.15 K
100 kPa	874.53 ± 0.9	865.62 ± 0.89	857.46 ± 0.88	848.37 ± 0.88	839.92 ± 0.87	831.17 ± 0.86	822.78 ± 0.85	814.24 ± 0.84
1000 kPa	874.57 ± 0.9	866.39 ± 0.89	857.68 ± 0.89	849.17 ± 0.88	840.72 ± 0.87	832.28 ± 0.86	823.57 ± 0.85	815.28 ± 0.85
3000 kPa	876.13 ± 0.9	867.88 ± 0.9	859.33 ± 0.89	850.82 ± 0.88	842.6 ± 0.87	834.1 ± 0.87	825.7 ± 0.86	817.47 ± 0.85
5000 kPa	877.24 ± 0.91	869.35 ± 0.9	860.86 ± 0.89	852.43 ± 0.89	844.26 ± 0.88	835.98 ± 0.87	827.54 ± 0.86	819.49 ± 0.86
10000 kPa	880.79 ± 0.92	872.9 ± 0.91	864.63 ± 0.9	856.42 ± 0.9	848.44 ± 0.89	840.27 ± 0.88	832.17 ± 0.88	824.1 ± 0.87
15000 kPa	884.05 ± 0.93	876.32 ± 0.92	868.21 ± 0.91	860.21 ± 0.91	852.27 ± 0.9	844.44 ± 0.9	836.71 ± 0.89	829.08 ± 0.88
20000 kPa	887.23 ± 0.93	879.53 ± 0.93	871.68 ± 0.92	863.98 ± 0.92	856.18 ± 0.91	848.65 ± 0.91	840.79 ± 0.9	833.26 ± 0.9
25000 kPa	890.33 ± 0.94	882.74 ± 0.94	875.06 ± 0.93	867.27 ± 0.93	859.9 ± 0.92	852.29 ± 0.92	844.86 ± 0.92	837.27 ± 0.91
30000 kPa	893.33 ± 0.95	885.85 ± 0.95	878.23 ± 0.94	870.68 ± 0.94	863.32 ± 0.93	856.04 ± 0.93	848.7 ± 0.93	841.4 ± 0.92
35000 kPa	896.14 ± 0.96	888.79 ± 0.95	881.36 ± 0.95	873.86 ± 0.95	866.68 ± 0.95	859.58 ± 0.94	852.44 ± 0.94	845.31 ± 0.94
40000 kPa	898.87 ± 0.97	891.61 ± 0.96	884.18 ± 0.96	877.04 ± 0.96	870.12 ± 0.96	862.91 ± 0.95	855.87 ± 0.95	849.11 ± 0.95
50000 kPa	904.41 ± 0.98	897.21 ± 0.98	890.09 ± 0.98	883.08 ± 0.98	876.13 ± 0.98	869.47 ± 0.98	862.53 ± 0.98	855.98 ± 0.98
60000 kPa	909.15 ± 0.99	902.44 ± 0.99	895.33 ± 0.99	888.79 ± 0.99	881.95 ± 1	875.25 ± 1	868.9 ± 1	862.59 ± 1
